Source: patent US6670189B2, “Fumonisin detoxification compositions and methods” (priority 1994, dated 2003)

What was measured:
AP1 catabolase = AP1 catabolase activity: modification of amine-containing substrates by crude cell-free extract; format: biochemical, Exophiala spinifera; conditions: for modification by the crude extract (catabolase): cell-free extract of substrate-induced Exophiala spinifera, TLC on C18 silica
Procedure: A cell-free extract that contains the catabolase activity was obtained by subjecting substrate-induced Exophiala spinifera cells to disruption using a bead beater in sodium acetate buffer, pH 5.2, and recovering the cell-free supernatant by centrifugation and 0.45 micron filtration. Catabolic activity is assayed by incubating extracts with AP1 (hydrolyzed fumonisin B1 backbone) or 14C-labelled AP1 with the extract and evaluating by TLC on C18 silica. The product AP1-N1 has a lower Rf than AP1 and is detected either by radiolabel scan or by H2SO4 spray/charring of the TLC plate. […] Other amine-containing substrates were tested for modification by the crude extract.

FB1 Hydrolase activity = test: Effect of various treatments on modification of FB1 by E. spinifera esterase (culture filtrates); format: biochemical, Exophiala spinifera; set-up: key: − = no hydrolysis; ± = trace amount of hydrolysis; + = incomplete hydrolysis; ++ = incomplete hydrolysis; +++ = complete hydrolysis; conditions: then incubated with FB1 overnight at 37° C.
Procedure: (§1) Analytical thin-layer chromatography was carried out on 100% silanized C18 silica plates (Sigma #T-7020; 10×10 cm; 0.1 mm thick) by a modification of the published method of Rottinghaus (Rottinghaus, G. E., Coatney, C. E., and Minor, H. C., A rapid, sensitive thin layer chromatography procedure for the detection of fumonisin b-1 and b-2, J Vet Diagn Invest, 4, 326 (1992), and herein incorporated by reference).
(§2) Sample lanes were pre-wet with methanol to facilitate sample application. After application of from 0.1 to 2 μl of aqueous sample, the plates were air-dried and developed in MeOH:4% KCl (3:2) or MeOH:0.2 M KOH (3:2) and then sprayed successively with 0.1 M sodium borate (pH 9.5) and fluorescamine (0.4 mg/ml in acetonitrile). Plates were air-dried and viewed under long wave UV.
The esterase isolated from E. spinifera was then subjected to other treatments, including proteases, to determine whether and how the enzyme would function in various environments.

[1] = Hydrolysis of fumonisin B1 by commercial esterases and hydrolases; format: biochemical; set-up: key: − = no hydrolysis; ± = trace amount of hydrolysis; + = incomplete hydrolysis; ++ = incomplete hydrolysis; +++ = complete hydrolysis; conditions: assay pH 8.0; overnight at 37° C. with 1 mg/ml fumonisin
Procedure: as §1, §2
The fumonisin esterase isolated from E. spinifera and R. atrovirens was compared with other known esterases from various sources as supplied by commercial vendors.

[2] = test system: maize tissue cultured cells (Black Mexican Sweet, BMS); conditions: for concentration at which growth of BMS cells was inhibited: liquid culture, 96-well plates, 1 week, cell density versus water control
Lemna tissues = conditions: Vesonder et al. 1992; cited from earlier work
tomato = conditions: Lamprecht et al. 1994; cited from earlier work
maize coleoptiles = test: Effect of FB1 and AP1 on maize coleoptiles; set-up: key to Injury of maize coleoptiles: + = brown necrotic discoloration of coleoptile; − = no symptoms (same as water control); conditions: for Injury of maize coleoptiles: 2 days dark at 28° C. then 3 days light
Procedure: Maize coleoptiles from 4 day dark-grown germinated maize seeds were excised above the growing point and placed in 96-well microtiter plates in the presence of 60 microliters of sterile distilled water containing FB1 or AP1 at approximately equimolar concentrations of 1.5, 0.5, 0.15, 0.05, 0.015, 0.005, 0.0015, or 0.0005 millimolar, along with water controls. After 2 days in the dark at 28° C. the coleoptiles were placed in the light and incubated another 3 days.

maize callus = conditions: solid medium; Van Asch et al. 1992; cited from earlier work
[3] = treatment 0.01 mg/ml, 16 hr, 37° C., pH 5.2

Compound: CCCCCCCCCCCCCC[C@@H](O)[C@@H](O)[C@@H](N)CO [Phytosphingosine]
- modification by the crude extract (catabolase) (AP1 catabolase): apparently not modified

Compound: Chymotrypsin
- FB1 Hydrolase activity (FB1 Hydrolase activity; [3]): ++

Compound: [Ca+2] [Ca^++]
- FB1 Hydrolase activity (FB1 Hydrolase activity; treatment 50 mM): +++

Compound: CCCCCCCCCCCCCCC[C@@H](O)[C@@H](N)CO [sphinganine]
- modification by the crude extract (catabolase) (AP1 catabolase): apparently not modified

Compound: [Mg+2] [Mg^++]
- FB1 Hydrolase activity (FB1 Hydrolase activity; treatment 50 mM): +++

Compound: Cholinesterase, butyryl: EC 3.1.1.8, Horse serum, highly purified
- FB1 hydrolysis [1]: −

Compound: O[C@@H](CS)[C@@H](O)CS [DTT]
- FB1 Hydrolase activity (FB1 Hydrolase activity; treatment 25 mM): +++

Compound: CCCCCCCCCCCCC/C=C/[C@@H](O)[C@@H](N)CO [Sphingosine]
- modification by the crude extract (catabolase) (AP1 catabolase): apparently not modified

Compound: CCCC[C@@H](C)[C@@H](O)[C@@H](O)C[C@@H](C)C[C@H](O)CCCC[C@@H](O)C[C@H](O)[C@H](C)N [AP1]
- difference in toxicity (FB1 versus AP1) to maize tissue cultured cells [2]: ~100 fold
- concentration at which growth of BMS cells was inhibited [2]: 40000 nM
- time to complete conversion to AP1-N1 (AP1 catabolase; pH 9): 30 min
- AP1 less toxic (than FB1) in Lemna tissues (Lemna tissues): approx. 40 fold
- reduction in toxicity to tomato by AP1 versus FB1 (tomato): ~100 fold
- Injury of maize coleoptiles (maize coleoptiles; 1.5 mM): +
- Injury of maize coleoptiles (maize coleoptiles; .0005 mM): −
- Injury of maize coleoptiles (maize coleoptiles; .0015 mM): −
- Injury of maize coleoptiles (maize coleoptiles; .005 mM): −
- Injury of maize coleoptiles (maize coleoptiles; .015 mM): −
- Injury of maize coleoptiles (maize coleoptiles; .05 mM): −
- Injury of maize coleoptiles (maize coleoptiles; .15 mM): −
- Injury of maize coleoptiles (maize coleoptiles; .5 mM): −
- difference in toxicity between FB1 and AP1 to maize coleoptiles (maize coleoptiles; AP1 less toxic than FB1): ≥ 30 fold

Compound: O=C(O)CN(CCN(CC(=O)O)CC(=O)O)CC(=O)O [EDTA]
- FB1 Hydrolase activity (FB1 Hydrolase activity; treatment 50 mM): ++

Compound: CCCC[C@@H](C)[C@@H](OC(=O)C[C@@H](CC(=O)O)C(=O)O)[C@H](C[C@@H](C)C[C@H](O)CCCC[C@@H](O)C[C@H](O)[C@H](C)N)OC(=O)C[C@@H](CC(=O)O)C(=O)O [FB1, Fumonisin B1]
- concentration at which growth of BMS cells was inhibited [2]: 400 nM
- modification by the crude extract (catabolase) (AP1 catabolase): not modified
- concentration giving significant inhibition of maize callus (maize callus): 1400 nM
- Injury of maize coleoptiles (maize coleoptiles; 1.5 mM): +
- Injury of maize coleoptiles (maize coleoptiles; .0005 mM): −
- Injury of maize coleoptiles (maize coleoptiles; .0015 mM): −
- Injury of maize coleoptiles (maize coleoptiles; .005 mM): −
- Injury of maize coleoptiles (maize coleoptiles; .05 mM): +
- Injury of maize coleoptiles (maize coleoptiles; .15 mM): +
- Injury of maize coleoptiles (maize coleoptiles; .5 mM): +

Compound: Trypsin
- FB1 Hydrolase activity (FB1 Hydrolase activity; [3]): +++

Compound: O=S(=O)(F)Cc1ccccc1 [PMSF, Phenylmethyl sulfonyl fluoride]
- FB1 Hydrolase activity (FB1 Hydrolase activity; treatment 10 mM): +++
